From patent US20260285853A1, “COMPOUNDS AND METHODS FOR MODULATING SPLICING” (REMIX THERAPEUTICS INC., priority 2023, published 2026)
Read-outs that look alike come from different tables or passages of the source.

Legend:
Type in all cases: cell-based
[1] = system: HTT mRNA; test: Splicing RT-qPCR assay (THP), Table 2A
[2] = system: MYB mRNA; test: Splicing RT-qPCR assay (THP), Table 2A
[3] = system: SH-SY5Y (human neuroblastoma) cells; test: Cell viability, Cell Titer Glo 2.0 assay; settings: read-out: Viability SHSY5Y.3 GI50
In short: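 Toxicity screen in SH-SY5Y cells. Compounds were serially diluted in DMSO and then in medium, giving 0.1% DMSO final. Viability was read with CellTiter-Glo 2.0 after 72 h at 37 °C, 5% CO2, against medium-only blank wells.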

[4] = system: HTT mRNA; test: Gene panel canonical junction qPCR assay, decrease in CJ mRNA, Table 3
In short: (§1)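 A673 (DMEM, 10% FBS, 15,000 cells/well) or K562 (IMDM, 10% FBS) cells treated 24 h at 37 °C with 11-point 3-fold dilutions, top 10 uM, DMSO ≤0.25%. Canonical exon-exon junction mRNA measured by RT-qPCR, normalized to GAPDH, GUSB or PPIA and DMSO (ΔΔCt); IC50 from 4-parameter logistic fit.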

[5] = system: MYB mRNA; test: as above
In short: as §1

[6] = Table 2A (THP), AJ mRNA increase, read-out: HTT AJ (increase in alternative junction mRNA, AC50)
[7] = Table 2A (THP), CJ mRNA decrease, read-out: HTT CJ (decrease in canonical junction mRNA, IC50)
[8] = Table 2A (THP), AJ mRNA increase, read-out: MYB AJ (increase in alternative junction mRNA, AC50)
[9] = Table 2A (THP), CJ mRNA decrease, read-out: MYB CJ (decrease in canonical junction mRNA, IC50)
[10] = decrease in canonical junction (CJ) mRNA, gene panel qPCR, Table 3
[11] = Table 2A, THP, HTT alternative junction (AJ) mRNA, read-out: HTT AJ (AC50, increase in alternative junction mRNA)
[12] = Table 2A, THP, HTT canonical junction (CJ) mRNA, read-out: HTT CJ (IC50, decrease in canonical junction mRNA)
[13] = Table 2A, THP, MYB alternative junction (AJ) mRNA, read-out: MYB AJ (AC50, increase in alternative junction mRNA)
[14] = Table 2A, THP, MYB canonical junction (CJ) mRNA, read-out: MYB CJ (IC50, decrease in canonical junction mRNA)
[15] = decrease in CJ mRNA levels, canonical junction qPCR, gene panel

IC50 [1, 7] [nM] | IC50 [2, 9] [nM] | GI50 [3] [nM] | IC50 [4, 10] [nM] | IC50 [5, 10] [nM] | IC50 [1, 12] [nM] | IC50 [2, 14] [nM] | IC50 [4, 15] [nM] | IC50 [5, 15] [nM] | SMILES | AC50 [1, 6] [nM] | AC50 [2, 8] [nM] | AC50 [1, 11] [nM] | AC50 [2, 13] [nM]
> 10000 | > 10000 | > 10000 | > 10000 | > 10000 | – | – | – | – | CCNC1CCN(c2ccc(C(=O)Nc3cc(C(N)=O)c4nc(C)cn4c3)c3nn(C)cc23)CC1 [Compound 317, N-(8-carbamoyl-2-methylimidazo[1,2-a]pyridin-6-yl)-4-(4-(ethylamino)piperidin-1-yl)-2-methyl-2H-indazole-7-carboxamide 2,2,2-trifluoroacetate] | > 10000 | > 10000 | – | –
1000 to 10000 | 100 to 1000 | 100 to 1000 | 1000 to 10000 | 100 to 1000 | – | – | – | – | CCNC1CCN(c2ccc(C(=O)Nc3cc(Oc4cccc(Cl)c4)c4nc(C)cn4c3)c3nn(C)cc23)CC1 [Compound 314, N-[8-(3-chlorophenoxy)-2-methylimidazo-[1,2-a]pyridin-6-yl]-4-[4-(ethylamino)-1-piperidyl]-2-methyl-indazole-7-carboxamide] | 1000 to 10000 | < 100 | – | –
– | – | 100 to 1000 | – | – | 100 to 1000 | < 100 | 100 to 1000 | < 100 | COc1nc2c(C(=O)Nc3cc(F)c4nn(C)cc4c3)ccc(N3CCN(C)CC3)c2s1 [Compound 789] | – | – | 100 to 1000 | < 100
> 10000 | > 10000 | > 10000 | > 10000 | > 10000 | – | – | – | – | CCNC1CCN(c2ccc(C(=O)Nc3cc(-n4ccccc4=O)c4nc(C)cn4c3)c3nn(C)cc23)CC1 [Compound 366, 4-[4-(ethylamino)-1-piperidyl]-2-methyl-N-[2-methyl-8-(2-oxo-1-pyridyl)imidazo[1,2-a]pyridin-6-yl]indazole-7-carboxamide] | > 10000 | > 10000 | – | –
– | – | 100 to 1000 | – | – | < 100 | < 100 | < 100 | < 100 | COc1nc2c(C(=O)Nc3cc(F)c4nn(C)cc4c3)ccc(N3CCC4(CCCN4)CC3)c2s1 [Compound 768] | – | – | < 100 | < 100
– | – | > 10000 | – | – | > 10000 | > 10000 | > 10000 | > 10000 | CCNC1C(C)CN(c2ccc(C(=O)Nc3cn4cc(C)nc(C)c4n3)c3nn(C)cc23)CC1C (stereo not drawn) [Compound 686] | – | – | > 10000 | > 10000
> 10000 | > 10000 | > 10000 | > 10000 | > 10000 | – | – | – | – | Cc1cn2cc(NC(=O)c3c(C)cc(N4CCC(NC5CC5)CC4)c4cn(C)nc34)nc2c(C)n1 [Compound 473, 4-[4-(cyclopropylamino)-1-piperidyl]-N-(6,8-dimethylimidazo[1,2-a]pyrazin-2-yl)-2,6-dimethyl-indazole-7-carboxamide] | > 10000 | > 10000 | – | –
– | – | > 10000 | – | – | > 10000 | > 10000 | > 10000 | > 10000 | Cc1cn2cc(NC(=O)c3ccc(N4CCC(NC5CC5)CC4)c4cn(C)nc34)nc2c(CN)n1 [Compound 734, N-(8-(aminomethyl)-6-methylimidazo[1,2-a]pyrazin-2-yl)-4-(4-(cyclopropylamino)piperidin-1-yl)-2-methyl-2H-indazole-7-carboxamide bis(2,2,2-trifluoroacetate)] | – | – | > 10000 | > 10000
1000 to 10000 | 100 to 1000 | 1000 to 10000 | 1000 to 10000 | 100 to 1000 | – | – | – | – | Cn1cc2cc(NC(=O)c3ccc(N4CCC(NC5CC5)CC4)c4cn(C)nc34)c(F)cc2n1 [Compound 459, 4-[4-(cyclopropylamino)-1-piperidyl]-N-(6-fluoro-2-methyl-indazol-5-yl)-2-methyl-indazole-7-carboxamide] | > 10000 | 100 to 1000 | – | –
– | – | < 100 | – | – | 100 to 1000 | < 100 | 100 to 1000 | < 100 | Cc1nc2c(C(=O)Nc3cc(F)c4nn(C)cc4c3)ccc(N3C[C@H](C)N[C@@H](C)C3)c2s1 [Compound 780] | – | – | 100 to 1000 | < 100
– | – | > 10000 | – | – | > 10000 | > 10000 | > 10000 | > 10000 | Cn1cc2cc(NC(=O)c3ccc(N4CCC(NC5CC5)CC4)c4cn(C)nc34)c(O)c(CNS(C)(=O)=O)c2n1 [Compound 867] | – | – | > 10000 | > 10000
100 to 1000 | < 100 | 100 to 1000 | 100 to 1000 | < 100 | – | – | – | – | Cn1cc2cc(NC(=O)c3c(F)cc(N4CCC(NC5CC5)CC4)c4cn(C)nc34)c(OC3CCOC3)cc2n1 (stereo not drawn) [Compound 467, 4-[4-(cyclopropyl-amino)-1-piperidyl]-6-fluoro-2-methyl-N-(2-methyl-6-tetrahydrofuran-3-yloxy-indazol-5-yl)indazole-7-carboxamide] | 100 to 1000 | < 100 | – | –
– | – | 100 to 1000 | – | – | 1000 to 10000 | < 100 | 1000 to 10000 | < 100 | Cc1cn2cc(NC(=O)c3ccc(N4CCC(NC5CC5)CC4)c4cn(C)nc34)nc(CNS(C)(=O)=O)c2n1 [Compound 837, 4-[4-(cyclopropylamino)-1-piperidyl]-N-[8-(methanesulfonamidomethyl)-2-methyl-imidazo[1,2-a]pyrazin-6-yl]-2-methyl-indazole-7-carboxamide] | – | – | 1000 to 10000 | < 100
1000 to 10000 | 1000 to 10000 | 1000 to 10000 | 1000 to 10000 | 1000 to 10000 | – | – | – | – | Cc1cn2cc(NC(=O)c3ccc(N4CCNC(C)CC4)c4cn(C)nc34)nc2c(C)n1 (stereo not drawn) [Compound 535] | 1000 to 10000 | 1000 to 10000 | – | –
– | – | 100 to 1000 | – | – | < 100 | < 100 | < 100 | < 100 | COc1nc2c(C(=O)Nc3cc(F)c4nc(C)cn4c3)ccc(N3CCC(NC4CC4)CC3)c2o1 [Compound 690, 7-[4-(cyclopropylamino)-1-piperidyl]-N-(8-fluoro-2-methyl-imidazo[1,2-a]pyridin-6-yl)-2-methoxy-1,3-benzoxazole-4-carboxamide] | – | – | 100 to 1000 | < 100
– | – | 1000 to 10000 | – | – | > 10000 | > 10000 | > 10000 | > 10000 | Cc1cn2cc(NC(=O)c3ccc(N4CCC(NC5CC5)CC4)c4cn(C)nc34)nc2c(CNc2nccs2)n1 [Compound 860] | – | – | > 10000 | > 10000
> 10000 | 1000 to 10000 | > 10000 | > 10000 | 1000 to 10000 | – | – | – | – | Cc1cn2cc(NC(=O)c3ccc(N4CCC5NCC5C4)c4cn(C)nc34)nc2c(C)n1 (stereo not drawn) [Compound 530] | > 10000 | > 10000 | – | –
> 10000 | > 10000 | 1000 to 10000 | > 10000 | > 10000 | – | – | – | – | COc1cc2nn(C)cc2cc1NC(=O)c1c(C2CC2)cc(N2CCC(NC3CC3)CC2)c2cn(C)nc12 [Compound 466, 6-cyclopropyl-4-[4-(cyclopropylamino)-1-piperidyl]-N-(6-methoxy-2-methyl-indazol-5-yl)-2-methyl-indazole-7-carboxamide] | > 10000 | > 10000 | – | –
